Experiments:
fibroblast 3T3 cells = assay: Cell migration across a scratched boundary, LPX105 variants; assay type: cell-based; settings: 72 hours after treatment, control group PBS
Description: Using the method described in Example 1-2 above, the cell migration promotion of LPX105, LPH105, and LPHS105 was confirmed. Specifically, in order to confirm the cell migration effect, fibroblast 3T3 cells were treated with LPX105, LPH105, and LPHS105 peptides, incubated for 1 hour, and then washed. Thereafter, the migration of cells across a scratched boundary was measured 72 hours after treatment. The number of cells that migrated across a scratch line was measured by image analysis using ImageJ.

[1] = tested on: diabetes model mice (db/db); assay: Diabetic wound healing of LPX105 variants in db/db mice; assay type: in vivo, mouse; settings: 3 μg daily for 10 days, control group PBS
Description: By using the method described in Example 2-4 above, the diabetic wound healing effect of LPX105, LPH105, and LPHS105 was evaluated. Specifically, the skins of diabetes model mice (db/db) (n=14 each) were punched with an 8 mm diameter puncher and treated with LPX105, LPH105 and LPHS105 (3 μg) or PBS daily for 10 days and subjected to wound dressing. The wound healing effect was confirmed by analyzing an initial wound area and a re-epithelialization area using ImageJ (mean SEM n=3, *; p<0.05).

NIH3T3 cell line = assay: Cell growth (relative proliferation rate vs control, 3 days); assay type: cell-based, mouse; settings: concentrations of 2 μM and 5 μM; 3 days after treatment
Description: (§1) An effect of LPX101 peptide on cell growth was confirmed in a NIH3T3 cell line, and the effects of LPX101, LPX102, and LPX103 peptides on cell migration were confirmed in diabetic human epidermal keratinocyte (DHEK) as a diabetic cell line. Specifically, mMSC or NIH3T3 cells were treated with the LPX101 peptide, incubated for 1 hour, and then washed. A % increase in cell growth by LPX treatment was confirmed by measuring the number of cells after 3 days of treatment and calculating a relative proliferation rate as % compared to a control group (n=3). Additionally, in order to confirm the cell migration effect, DHEK cells were treated with LPX101, LPX102, and LPX103 peptides, incubated for 1 hour, and then washed. Thereafter, the migration of cells across a scratched boundary was measured 72 hours after treatment. The number of cells that migrated across a scratch line was measured by image analysis using ImageJ.

[2] = tested on: diabetes model mice (db/db); assay: Diabetic wound healing in diabetes model mice (db/db); assay type: in vivo, mouse
Description: (§2) The skins of wild type (WT) mice and diabetes model mice (db/db) (n=14 each) were punched with an 8 mm diameter puncher and treated with LPX101 (2 mg/ml, 20 μl) or PBS daily for 14 days and subjected to wound dressing. The wound healing effect was confirmed by analyzing an initial wound area and a re-epithelialization area using ImageJ (mean SEM n=3, *; p<0.05). In addition, the wound healing effect in wounds treated with LPX101 was histologically evaluated. Specifically, diabetic mice (db/db) were stained with H/E or trichrome at 7 and 14 days after wound induction and then confirmed under a microscope, and re-epithelialization and granulation tissue were quantified using ImageJ (n=3, ***; p<0.001). In addition, the wounds of db/db mice were treated with LPX101, and the tissue epidermis after 14 days was histologically analyzed.
(§3) The wound healing effects of LPX101, LPX102, and LPX103 were confirmed in an STZ-induced diabetic mouse model. […] Thereafter, according to a schedule shown in FIG. 12A, PBS (negative control), EGF (positive control) 50 μg/ml, LPX101 2 mg/ml (20 μl), LPX102 and LPX103 (2 mg/ml (20 μl)) were treated, respectively, and then the effect of wound healing in a diabetes-induced mouse model was confirmed through imaging, re-epithelialization, and diabetes phenotypes (hyperglycemia and impaired glucose tolerance test (IPGTT)) (n=10 for each group, *; p<0.05). Additionally, to compare the regenerative activity of LPX peptides in a diabetic mouse model, wound healing kinetics measured by a % non-epithelialized area to an initial wound area (n=8 for each group), and quantification of re-epithelialization analyzed as % of a re-epithelialized area to the initial wound area were confirmed.

wild type (WT) mice = assay: Skin punch wound healing in wild type mice; assay type: in vivo, mouse; settings: 2 mg/ml, 20 μl daily for 14 days
Description: as §2

[3] = tested on: diabetic human epidermal keratinocyte (DHEK); assay: Cell migration across a scratched boundary; assay type: cell-based
Description: as §1

NIH3T3 cells [4] = assay: Glycolysis, extracellular acidification rate (ECAR), Seahorse XF analyzer; assay type: cell-based, mouse
Description: NIH3T3 cells were incubated in a glucose-free medium for 1 day and then sequentially treated with glucose, oligomycin, and 2-DG, and an extracellular acidification rate (ECAR) was measured as a measure of lactate production using a Seahorse extracellular flux (XF) analyzer and quantification and profile of ECAR were confirmed in cells treated with LPX peptide (Mean SEM n=3, *; p<0.05).

[5] = tested on: NIH3T3 cell line and mouse mesenchymal stem cells (mMSCs); assay: Cell penetrating effect (FACS, confocal microscopy) of FITC-attached peptides; assay type: cell-based
Excerpt: A cell penetrating effect was confirmed in penetrating peptides LPX101 (SEQ ID NO: 11), LPX102 (SEQ ID NO: 12), and LPX103 (SEQ ID NO: 13) having three structures including a signal peptide, an RNA binding affinity residue, and an RNA binding residue (FIG. 1), and two zinc finger motifs. Specifically, in order to measure cell penetrating efficiency, respective peptides that may have been attached to the cell membrane surface were removed by applying a Heparin & Trypsin washing method used in a Keplan group [Kaplan I M, Wadia J S, Dowdy S F (2005) Cationic TAT peptide transduction domain enters cells by macropinocytosis. J Controlled release 102: 247-253] to a NIH3T3 cell line and mouse mesenchymal stem cells (mMSCs). […] Then, the cells were washed three times with PBS and detached with trypsin, and then FACS analysis was performed. In addition, whether each peptide actually existed in the nucleus or cytoplasm of the cell was confirmed by confocal microscopy after 18 hours of peptide treatment, and membrane binding was labeled with PKH.

NIH3T3 cells [6] = assay: Cell migration effects, Table 1; assay type: cell-based, mouse; settings: vehicle = 1
Description: Various variants of the LPX peptides were prepared as illustrated in FIG. 18. Specifically, various constructs (26 constructs including 101) were prepared by adding various mutations (substitution of a CPP region, amino acid mutation of an RNA binding portion and a zinc finger structure, and addition of his-tag) to the structure of LPX101 in FIG. 19 (FIG. 20).

[7] = tested on: diabetic mouse model (db/db); assay: Diabetic wound healing by combined treatment with EGF; assay type: in vivo; settings: db/db mice, 8 mm punch wound
Excerpt: The diabetic wound healing effect by combined treatment with LPX peptide and EGF was confirmed.

diabetic mice (db/db) = assay: Histological evaluation of wound re-epithelialization (H/E, day 10); assay type: in vivo, mouse; settings: day 10 after initial injury
Excerpt: In order to histologically evaluate wound re-epithelialization in diabetic mice by LPX peptides 101, 102 and 103, wound tissues from diabetic mice (db/db) treated by each LPX were H/E stained on day 10 after initial injury and confirmed under a microscope (50X and 100x).

[8] = tested on: Human umbilical vein endothelial cells (Huvec); assay: Blood vessel formation on cytokine-free Matrigel; assay type: cell-based; settings: Huvec treated for one day
Excerpt: Human umbilical vein endothelial cells (Huvec) were dispensed on a cytokine-free Matrigel and treated with LPX101 for one day (n=3, 1 expt). […], the blood vessel formation was confirmed under a microscope, and blood vessel formation parameters including the number of nodules, the number of intravascular junctions, and the number of master segments were quantified.

[9] = tested on: STZ-induced diabetic mouse model; assay: Wound healing in STZ-induced diabetic mouse model; assay type: in vivo; settings: 2 mg/ml (20 μl)
Description: as §3

LPH105: LPX105 variant of SEQ ID NO: 39, Histidine tag insertion (HHHHHHRRPKGKSMQKRRSKGDRCYNCGGLDHHAKECKL; LPH105)
cell migration (fibroblast 3T3 cells): increased cell migration more than LPX105 | diabetic wound healing [1]: accelerated the diabetic wound healing more significantly than LPX105

LPHS105: LPX105 variant of SEQ ID NO: 40, zinc finger region mutations and Histidine tag insertion (HHHHHHRRPKGKSMQKRRSKGDRCYNCGELDHHAKECKL; LPHS105)
cell migration (fibroblast 3T3 cells): increased cell migration more than LPX105 | diabetic wound healing [1]: accelerated the diabetic wound healing more significantly than LPX105

LPX101: cell-penetrating peptide consisting of amino acid sequence SEQ ID NO: 11 (RRPKGKSMQKRRSKGDRCYNCGGLDHHAKECKLPPQPKKCHFCQSISHMVASCPLKAQQK; LPX101)
cell growth (NIH3T3 cell line): promoted cell growth | healing of diabetic wounds ([2]; db/db mice, 2 mg/ml, 20 μl daily for 14 days): significantly accelerated the healing of diabetic wounds | granulation tissue, day 7 ([2]; db/db mice, day 7 (middle of the healing process)): early formation of granulation tissue | remodeling of the regenerated wound epithelium ([2]; db/db mice, day 14): accelerated | granulation tissue, day 14 ([2]; db/db mice, day 14 (end of the healing process)): early shrinkage (remodeling) of granulation tissue | hyperkeratosis, parakeratosis and acanthosis of the epidermis ([2]; db/db mice, histological analysis on day 14): reduced early | wound healing (wild type (WT) mice): accelerated wound healing | migration of DHEK cells ([3]; 72 hours after treatment): promoted the migration of DHEK cells | glucose metabolism (glycolysis), ECAR (NIH3T3 cells [4]): promoted glucose metabolism (glycolysis) | cell permeability ([5]; concentrations of 2 μM and 5 μM): high cell permeability | intracellular localization ([5]; confocal microscopy after 18 hours of peptide treatment): most of LPX101 was present in the cytoplasm | Effects on cell migration (3 expts) (NIH3T3 cells [6]; 1 uM): 1.4 | Effects on cell migration (3 expts) (NIH3T3 cells [6]; 5 uM): 1.3 | diabetic wound healing effect in combination with EGF [7]: improved when treated in combination with EGF | re-epithelialization of diabetic wounds (histology) (diabetic mice (db/db)): significantly improved re-epithelialization | blood vessel formation (capillary vascular rings) [8]: form more mature capillary vascular rings

LPX102: cell-penetrating peptide consisting of amino acid sequence SEQ ID NO: 12 (GSERRPKGKSMQKRRSKGDRCYNCGGLDHHAKECKLPPQPKKCHFCQSISHMVASCPL; LPX102)
diabetic wound healing effect (wound healing kinetics and re-epithelialization) compared to LPX101 ([2]; db/db mouse model): better diabetic wound healing effect than LPX101 | cell migration compared to LPX101 ([3]; DHEK cells, at lower concentrations than LPX101): promoted cell migration to a similar extent to LPX101 | glucose metabolism (glycolysis), ECAR (NIH3T3 cells [4]): promoted glucose metabolism (glycolysis) | cell permeability compared to LPX101 ([5]; compared to LPX101 (2 μM)): high cell permeability similar to LPX101 | Effects on cell migration (3 expts) (NIH3T3 cells [6]; 1 uM): 1.2 | Effects on cell migration (3 expts) (NIH3T3 cells [6]; 5 uM): 1.2 | diabetic wound healing effect in combination with EGF [7]: improved when treated in combination with EGF | re-epithelialization of diabetic wounds (histology) (diabetic mice (db/db)): significantly improved re-epithelialization | wound healing effect compared to LPX101 [9]: better effects than LPX101

LPX104: cell-penetrating peptide of SEQ ID NO: 14, containing SEQ ID NO: 7 with an RNA binding site in zinc finger 2 region (ERRPKGKSMQKRRSKGDRCYNCGGLDHHAKECKLPPQPKKCH; LPX104)
Effects on cell migration (3 expts) (NIH3T3 cells [6]; 1 uM): 1.3 | Effects on cell migration (3 expts) (NIH3T3 cells [6]; 5 uM): 1.3

LPX105: cell-penetrating peptide of SEQ ID NO: 37 (RRPKGKSMQKRRSKGDRCYNCGGLDHHAKECKL; LPX105)
cell migration (fibroblast 3T3 cells): significantly promoted cell migration | diabetic wound healing [1]: accelerated the diabetic wound healing

— patent US20240182521A1, “CELL-PENETRATING PEPTIDE VARIANT AND USE THEREOF” (REGEN INNOPHARM INC., priority 2021, published 2024)
